{"source": "paper PMC9598656", "about": "“In Vitro Activity of Robenidine Analogues NCL259 and NCL265 against Gram-Negative Pathogens” (Antibiotics, 2022)", "key": {"[1]": {"tested_on": "K. pneumoniae 13GNB–550", "assay": "Checkerboard assay with PAβN", "assay_type": "cell-based, Klebsiella pneumoniae", "settings": "for concentration at the marked interaction: resazurin", "experimental": "(§1) MICs of NCL259 or NCL265 in the presence of the efflux pump inhibitor, PAβN were determined using a checkerboard assay. […] Briefly, a two-fold serial dilution of each antimicrobial solution was prepared in its appropriate solvent (e.g., DMSO for robenidine analogues and Milli-Q water for PAβN), and 1 μL of each dilution was added from wells 12 to 3 (12.8–0.25 μg/mL for robenidine analogues, and 32–2 μg/mL for PAβN). Thereafter, 89 μL of LB broth was added to each well followed by the addition of 10 μL of bacterial suspension (1–5 × 10^6 CFU/mL) to each well. In this manner, the final concentration of DMSO in each well was 1%. The plate was subsequently incubated at 37 °C for 24 h. The resazurin assay was used for assessment of drug susceptibility of NCL259 and NCL265 (Supplementary Table S1–S6). The same method was also used to test the MICs of NCL259 or NCL265 in the presence of PMB against a range of Gram-negative reference strains (E. coli ATCC 25922, E. coli ATCC 10763, P. aeruginosa PAO1, P. aeruginosa ATCC 27853, A. baumannii ATCC 12457, A. baumannii ATCC 19606, K. pneumoniae ATCC 4352 and K. pneumoniae ATCC 33495). Stock solutions were prepared prior to use (25.6–0.25 mg/mL for robenidine analogues; 12.8–0.25 mg/mL for PMB). The interaction of two antibiotics was calculated as the fractional inhibitory concentration index (FICI) using the following formula:(1) FICI=MICA in combination/MICA alone+MICB in combination/MICB alone where A is NCL259 or NCL265 and B is PAβN or PMB. According to FICI calculations, the interaction between two compounds were interpreted as follows: synergistic (FICI ≤ 0.5); additive or partially synergistic (0.5 < FICI ≤ 1); indifferent (1 < FICI ≤ 4); and antagonistic (FICI > 4), as described previously. The dose reduction index (DRI) was used to describe the difference between the effective doses of NCL259 or NCL265 in combination with PMB or PAβN in comparison to their individual doses, using the following formula:(2) DRI=MICA alone/MICA in combination\n(§2) Evaluation of DRI is important clinically because it can allow the dose of a potentially toxic drug to be lowered in combination with another compound without reducing the drug’s efficacy. A DRI higher than 1 is viewed as beneficial."}, "[2]": {"tested_on": "K. pneumoniae 13GNB–429", "assay": "Checkerboard assay with PAβN", "assay_type": "cell-based, Klebsiella pneumoniae", "settings": "for concentration at the marked interaction: resazurin", "experimental": "as §1, §2"}, "[3]": {"tested_on": "Gram-negative human and animal isolates, including human KAPE pathogens", "assay": "MIC range over all isolates", "assay_type": "cell-based", "settings": "variety of Gram-negative human and animal isolates (discussion)", "experimental": "A variety of Gram-negative reference strains (E. coli ATCC 25922, E. coli ATCC 10763, P. aeruginosa PAO1, P. aeruginosa ATCC 27853, A. baumannii ATCC 12457, A. baumannii ATCC 19606, K. pneumoniae ATCC 4352 and K. pneumoniae ATCC 33495) were used for initial screening and combination testing with PMB. The organisms were speciated using biochemical testing and MALDI-TOF mass spectrometry (Bruker, Preston, VIC, Australia). Activity testing of NCL259 and NCL265 was also carried out on 51 extraintestinal clinical E. coli isolates from companion animals, and 83 porcine and bovine enterotoxigenic E. coli (ETEC) isolates from the Australian Centre for Antimicrobial Resistance Ecology collection. […]\nMICs for NCL259 and NCL265 (serial two-fold dilutions commencing at 256 µg/mL) were determined (in duplicate) in round bottom 96–well microtitre trays (Sarstedt 82.1582.001), using the broth micro-dilution method recommended by the Clinical and Laboratory Standards Institute (CLSI). […] The MIC for ampicillin against each isolate was determined for each test to serve as an internal quality control. The MICs of isolates were determined by visual reading and using an EnSpire Multimode Plate Reader 2300 at A600nm."}, "[4]": {"tested_on": "K. pneumoniae ATCC 4352", "assay": "Checkerboard assay with PMB", "assay_type": "cell-based, Klebsiella pneumoniae", "settings": "for MIC, Combination: NCL259 or NCL265 with PMB; for Combination Effect / FICI: with PMB", "experimental": "as §1, §2"}, "[5]": {"tested_on": "K. pneumoniae ATCC 33495", "assay": "Checkerboard assay with PMB", "assay_type": "cell-based, Klebsiella pneumoniae", "settings": "for MIC, Combination: NCL259 or NCL265 with PMB; for Combination Effect / FICI: with PMB", "experimental": "as §1, §2"}, "[6]": {"settings": "K. pneumoniae 13GNB–550, PAβN + NCL265"}, "[7]": {"settings": "Table S5, NCL265 + PAβN, replicate 1"}, "[8]": {"settings": "Table S5, NCL265 + PAβN, replicate 2"}, "[9]": {"settings": "K. pneumoniae 13GNB–429, PAβN + NCL265"}, "[10]": {"settings": "Table S4, NCL265 + PAβN, replicate 1"}, "[11]": {"settings": "Table S4, NCL265 + PAβN, replicate 2"}, "[12]": {"settings": "K. pneumoniae 13GNB–550, PAβN + NCL259"}, "[13]": {"settings": "Table S2, NCL259 + PAβN, replicate 2"}, "[14]": {"settings": "K. pneumoniae 13GNB–429, PAβN + NCL259"}, "[15]": {"settings": "Table S1, NCL259 + PAβN, replicate 1"}, "[16]": {"settings": "Table S1, NCL259 + PAβN, replicate 2"}}}
{"smiles": "[H]/N=C(\\N)NN=C(CCCCCC)c1ccc(Cl)cc1", "note": "[NCL265, (E)-2-(1-(4-chlorophenyl)heptylidene)hydrazine-1-carboximidamide]", "values": [{"measurement": "DRI PAβN:NCL265", "setting": "[1]; K. pneumoniae 13GNB–550", "value": 64}, {"measurement": "Combination Effect", "setting": "[1]; [6]", "value": "Additivity (additive or partially synergistic, 0.5 < FICI ≤ 1)"}, {"measurement": "FICI", "setting": "[1]; [6]", "value": 0.516}, {"measurement": "MIC, Combination", "setting": "[1]; [6]", "value": 4, "unit": "µg/mL"}, {"measurement": "interaction", "setting": "[1]; [7]", "value": "synergistic (synergistic (FICI ≤ 0.5))"}, {"measurement": "interaction", "setting": "[1]; [8]", "value": "synergistic (synergistic (FICI ≤ 0.5))"}, {"measurement": "concentration at the marked interaction", "setting": "[1]; [7]", "value": 8, "unit": "µg/mL"}, {"measurement": "concentration at the marked interaction", "setting": "[1]; [8]", "value": 8, "unit": "µg/mL"}, {"measurement": "DRI PAβN:NCL265", "setting": "[2]; K. pneumoniae 13GNB–429", "value": 64}, {"measurement": "Combination Effect", "setting": "[2]; [9]", "value": "Additivity (additive or partially synergistic, 0.5 < FICI ≤ 1)"}, {"measurement": "FICI", "setting": "[2]; [9]", "value": 0.516}, {"measurement": "MIC, Combination", "setting": "[2]; [9]", "value": 4, "unit": "µg/mL"}, {"measurement": "interaction", "setting": "[2]; [10]", "value": "synergistic (synergistic (FICI ≤ 0.5))"}, {"measurement": "interaction", "setting": "[2]; [11]", "value": "synergistic (synergistic (FICI ≤ 0.5))"}, {"measurement": "concentration at the marked interaction", "setting": "[2]; [10]", "value": 8, "unit": "µg/mL"}, {"measurement": "concentration at the marked interaction", "setting": "[2]; [11]", "value": 8, "unit": "µg/mL"}, {"measurement": "MIC range", "setting": "[3]", "value": "2 to 32", "unit": "µg/mL"}, {"measurement": "MIC, Combination", "setting": "[4]", "value": 0.5, "unit": "µg/mL"}, {"measurement": "Dose Reduction Index (DRI) PMB:NCL265", "setting": "[4]; PMB + NCL265", "value": "4:4"}, {"measurement": "Combination Effect", "setting": "[4]", "value": "Synergism (synergistic, FICI ≤ 0.5)"}, {"measurement": "FICI", "setting": "[4]", "value": 0.5}, {"measurement": "MIC, Combination", "setting": "[5]", "value": 2, "unit": "µg/mL"}, {"measurement": "Dose Reduction Index (DRI) PMB:NCL265", "setting": "[5]; PMB + NCL265", "value": 32}, {"measurement": "Combination Effect", "setting": "[5]", "value": "Synergism (synergistic, FICI ≤ 0.5)"}, {"measurement": "FICI", "setting": "[5]", "value": 0.281}]}
{"smiles": "[H]/N=C(\\N)NN=C(CC1CCCCC1)c1ccc(Cl)cc1", "note": "[NCL259, (E)-2-(1-(4-chlorophenyl)-2-cyclohexylethylidene)hydrazine-1-carboximidamide]", "values": [{"measurement": "DRI PAβN:NCL259", "setting": "[1]; K. pneumoniae 13GNB–550", "value": 32}, {"measurement": "Combination Effect", "setting": "[1]; [12]", "value": "Additivity (additive or partially synergistic, 0.5 < FICI ≤ 1)"}, {"measurement": "FICI", "setting": "[1]; [12]", "value": 0.531}, {"measurement": "MIC, Combination", "setting": "[1]; [12]", "value": 8, "unit": "µg/mL"}, {"measurement": "interaction", "setting": "[1]; [13]", "value": "synergistic (synergistic (FICI ≤ 0.5))"}, {"measurement": "concentration at the marked interaction", "setting": "[1]; Table S2, NCL259 + PAβN, replicate 1", "value": 16, "unit": "µg/mL"}, {"measurement": "concentration at the marked interaction", "setting": "[1]; [13]", "value": 16, "unit": "µg/mL"}, {"measurement": "DRI PAβN:NCL259", "setting": "[2]; K. pneumoniae 13GNB–429", "value": 16}, {"measurement": "Combination Effect", "setting": "[2]; [14]", "value": "Synergism (synergistic, FICI ≤ 0.5)"}, {"measurement": "MIC, Combination", "setting": "[2]; [14]", "value": 16, "unit": "µg/mL"}, {"measurement": "interaction", "setting": "[2]; [15]", "value": "synergistic (synergistic (FICI ≤ 0.5))"}, {"measurement": "interaction", "setting": "[2]; [16]", "value": "synergistic (synergistic (FICI ≤ 0.5))"}, {"measurement": "concentration at the marked interaction", "setting": "[2]; [15]", "value": 16, "unit": "µg/mL"}, {"measurement": "concentration at the marked interaction", "setting": "[2]; [16]", "value": 16, "unit": "µg/mL"}, {"measurement": "MIC, Combination", "setting": "[4]", "value": 1, "unit": "µg/mL"}, {"measurement": "Dose Reduction Index (DRI) PMB:NCL259", "setting": "[4]; PMB + NCL259", "value": 8}, {"measurement": "Combination Effect", "setting": "[4]", "value": "Synergism (synergistic, FICI ≤ 0.5)"}, {"measurement": "FICI", "setting": "[4]", "value": 0.375}, {"measurement": "MIC, Combination", "setting": "[5]", "value": 1, "unit": "µg/mL"}, {"measurement": "Dose Reduction Index (DRI) PMB:NCL259", "setting": "[5]; PMB + NCL259", "value": 64}, {"measurement": "Combination Effect", "setting": "[5]", "value": "Additivity (additive or partially synergistic, 0.5 < FICI ≤ 1)"}, {"measurement": "FICI", "setting": "[5]", "value": 0.516}]}
